{"source": "paper PMC5766510", "about": "“Development of a PET radioligand for potassium channels to image CNS demyelination” (Scientific Reports, 2018)", "key": {"[1]": {"tested_on": "voltage-gated K^+ channels in demyelinated axons", "format": "in vivo", "text": "Thirty minutes post-injection of the radiolabeled drug, the mice were euthanized and their brains dissected without perfusion to prevent washout of the drug. After dissection, the brains were frozen, cut into thin sections and collected on glass slides. The brain slices were then apposed to autoradiography film to reveal the distribution of the drug in the brain at the time of death. After autoradiography, the same brain sections were stained with the myelin-specific dye Luxol fast blue (LFB).\nNumber of animals per group was determined using statistical power analysis (α = 0.05, power = 0.80). […] The brains were embedded in Optimal Cutting Temperature (Tissue-Tek), frozen in dry ice and stored at −80 °C. Frozen brains were sliced in a cryostat at 20 μm thickness, the sections mounted on Superfrost Plus slides (Fisher) and allowed to dry at room temperature for at least 30 min. Next, the slides were placed in a cassette in front of autoradiography film (Denville scientific) sealed in the dark at −80 °C for 14–21 days. After that time the cassette was allowed to warm up to room temperature and the films developed inside a dark room using a film processor (Konica). The films were then scanned using an EPSON Perfection V750 scanner (Positive film mode, 8-bit grayscale, 1,200 dpi). After digitizing the radiographs, the same slides were stained using Luxol fast blue (LFB) and cresyl violet. For [^18F]3-F-4-AP autoradiography in rats we injected 1–2 μCi per g. After euthanasia, the brains were dissected without perfusion, frozen in dry ice and sliced in a cryostat at −20 °C.\n1 min) and left in LFB solution (0.1 g LFB, 100 mL of 95% EtOH, 0.5 mL glacial acetic acid) overnight at 56 °C. Next morning, the slides were rinsed in 95% EtOH and ddH2O to remove the excess of dye, differentiated in lithium carbonate solution (0.05 g in 100 mL) for 30 s, 70% EtOH for 30 s and rinsed in ddH2O. The differentiation steps were repeated until the gray matter was clear and the white matter appeared blue and sharply defined. Afterwards, the slides were counterstained in cresyl violet (0.1 g in 100 mL of ddH2O, 0.1 mL acetic acid) for 30 s. The slides were differentiated in 95 % EtOH for 5 min and dehydrated (100% EtOH, 2x 5 min ea; 100 % xylene, 2 x, 5 min ea) before mounting with permount (Electron Microscopy Sciences). After staining, images of the slides were collected using the CRi Pannoramic Whole Slide Scanner (Perkin Elmer) equipped with a 20x objective.\nImage analysis: The histology images were superimposed on the autoradiography images using Photoshop. The histology images were used to precisely outline the corpus callosum, the cortex and a ~1.5 mm-wide area around the brain (background). The autoradiographic signal from each area was quantified. The background signal was subtracted from the all the areas and defined as zero. The signal intensity of the cortex was set as 1.0 and the signal intensity of the corpus callosum was measured relative to the cortex. Color images were created using the 6-shades look up table (LUT) in ImageJ. […]"}, "[2]": {"tested_on": "K^+ channels in explanted mouse optic nerves", "assay": "Compound action potential (CAP) of dissected mouse optic nerves", "conditions": "for activity in enhancing the CAP / IC50: dysmyelinated (Shiverer) optic nerves; for IC50: CAP enhancement, given as IC50; for times less potent: from EC50 values, versus 4-AP and 3-F-4-AP", "description": "Therefore, we tested the effects of these compounds on the compound action potential (CAP) of dysmyelinated optic nerves from control and Shiverer mice (Fig. 2E).\nOptic nerves were dissected from 12–16 week old Shiverer (Mbp^shi/shi) and control mice (Mbp^+/shi and Mbp^+/+). Compound action potentials (CAP) were recorded using suction electrodes as described by Stys et al.[91]. See SI for additional details.\n(§1) CI95 = [Upper Limit. Lower Limit]; where Upper Limit = 10^(logEC50+s.d.) and Lower Limit = 10^(logEC50−s.d.). […]\nDissection of optic nerves: Optic nerves were dissected from 12-16 week old Shiverer (Mbpshi/shi) and control mice (Mbp+/shi and Mbp+/+). Mice were euthanized by CO2 overdose and the optic nerves were quickly dissected between the eyeball and the optic chiasm. The nerves […]\nOptic nerve electrophysiology: Compound action potentials (CAP) from dysmyelinated nerves (Shiverer mice, Mbpshi/shi) and myelinated nerves (litermate controls, Mbp+/shi and Mbp+/+) were […]\nbetween two suction electrodes (stimulus and recording electrodes) forming a tight seal on each end. Two additional electrodes were placed in the bath for reference. A supramaximal pulse (250 mV, 20 μs) was applied at the stimulating end of the nerve. The resulting CAP was amplified from the recording electrode using a high impedance low-noise amplifier (EG&G Princeton Applied Research Corporation) sampled at 100 kHz and filtered at 10 kHz. To assess […]\nconcentrations to the recording chamber after the CAP was allowed to stabilize for 5 min while […]\npulsing repeatedly. After each measurement, the chamber was washed for 5 min (flow 1 […]\nmL/min) with oxygenated aCSF. […]\nconduction and the temperature was monitored throughout the experiment. CAP recordings were acquired with a SBC6711 board (Innovative Integration) controlled by in-house written software. Analysis of the traces was done using an in-house software. The half-maximal […]\namplitude vs. concentration and fitted to the Hill equation using Origin. […]\nCompound action potential of nerve recorded by suction electrode: a theoretical and experimental analysis. […]"}, "[3]": {"target": "non-inactivating Shaker channel from D. melanogaster (Drosophila melanogaster, UniProt P08510, DEL6-46)", "sequence (P08510 other isoform, or with tags, fused parts or gaps DEL6-46)": "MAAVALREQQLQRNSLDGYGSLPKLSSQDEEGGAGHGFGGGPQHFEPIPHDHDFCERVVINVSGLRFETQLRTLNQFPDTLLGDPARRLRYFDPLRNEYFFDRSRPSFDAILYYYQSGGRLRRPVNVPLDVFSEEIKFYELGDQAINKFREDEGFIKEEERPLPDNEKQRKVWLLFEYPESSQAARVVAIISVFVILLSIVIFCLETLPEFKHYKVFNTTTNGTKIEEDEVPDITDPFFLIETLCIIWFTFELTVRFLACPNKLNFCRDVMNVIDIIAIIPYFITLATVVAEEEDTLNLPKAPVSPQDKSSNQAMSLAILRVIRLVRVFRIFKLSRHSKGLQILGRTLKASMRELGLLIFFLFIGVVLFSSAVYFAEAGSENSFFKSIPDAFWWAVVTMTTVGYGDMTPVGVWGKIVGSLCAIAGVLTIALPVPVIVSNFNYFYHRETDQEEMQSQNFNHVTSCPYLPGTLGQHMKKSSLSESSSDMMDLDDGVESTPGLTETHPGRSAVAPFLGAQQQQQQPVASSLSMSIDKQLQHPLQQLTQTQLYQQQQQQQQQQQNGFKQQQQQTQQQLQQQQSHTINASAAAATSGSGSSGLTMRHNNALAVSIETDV", "assay": "cell-based", "description": "See SI for additional details.\nas §1\nexchanging the external solution (top and guard chambers) several times. After application, cells were voltage-clamped at least 5 min at 0mV, then voltage-clamped at -80mV for 1-2 min.\nK+ currents were generated by applying series of 50 ms pulses from -70 mV to +40 mV in increments of 10 mV. The effect of the drug was assessed by measuring the relative intensity of the K+ current before and after applying varying drug concentration at a constant voltage (typically +20 mV) and at the end of the test-pulse. Data acquisition and analysis of the traces was performed using Gpatch software (Department of Anesthesiology, University of California, […]\nLos Angeles). […]"}, "C57Bl/6 J mice": {"tested_on": "C57Bl/6 J mice", "assay": "In vivo effects (signs of neuroexcitation) after intraperitoneal injection", "conditions": "mouse, different doses", "description": "In this experiment, we injected each drug intraperitoneally at different concentrations into mice and looked for signs of neuroexcitation (Fig. 3B).\n10-week-old female C57Bl/6 J mice were given an intraperitoneal injection of the drug under investigation and monitored continuously for 4 h. […] At least 72 h passed between injections to the same mice."}, "in vitro": {"assay": "in vitro", "conditions": "mouse, microsomes"}, "[4]": {"conditions": "relative K^+ current at +20 mV, Hill equation fit, read-out: Half-maximal inhibitory concentration (IC50)"}}, "note": "Where two headings read alike, the source gives them in different places."}
{"molecule": "O=[14CH]C[C@@H](O)[C@H](O)[C@H](O)CO", "note": "[2-DG, [1-^14C]2-deoxy-D-glucose, reference compound]", "values": [{"measurement": "difference in brain distribution between wild type and Shiverer mice", "setting": "[1]; mouse, in vivo", "value": "no differences were seen"}]}
{"molecule": "Nc1ccnc(F)c1", "note": "[2-F-4-AP, 2-fluoro-4-aminopyridine]", "values": [{"measurement": "activity in enhancing the CAP", "setting": "[2]", "value": "inactive"}, {"measurement": "IC50", "setting": "[3]; [4]", "value": "> 10", "unit": "mM"}, {"measurement": "signs of neuroexcitation, summary in words relative to 4-AP", "setting": "C57Bl/6 J mice", "value": "did not cause any effects at doses up to 20 times greater"}]}
{"molecule": "Nc1ccncc1CCF", "note": "[3-FEt-4-AP, 3-fluoroethyl-4-aminopyridine]", "values": [{"measurement": "activity in enhancing the CAP", "setting": "[2]", "value": "inactive"}, {"measurement": "IC50", "setting": "[3]", "value": "> 10", "unit": "mM"}]}
{"molecule": "Nc1ccncc1CF", "note": "[3-FMe-4-AP, 3-fluoromethyl-4-aminopyridine]", "values": [{"measurement": "IC50", "setting": "[2]", "value": 0.386, "unit": "mM"}, {"measurement": "times less potent", "setting": "[2]", "value": "4–6 times"}, {"measurement": "IC50", "setting": "[3]; [4]", "value": 7.45, "unit": "mM"}, {"measurement": "signs of neuroexcitation, summary in words relative to 4-AP", "setting": "C57Bl/6 J mice", "value": "half as potent as 4-AP"}]}
{"molecule": "Nc1ccncc1CO", "note": "[3-HOMe-4-AP, 3-hydroxymethyl-4-aminopyridine, reference compound]", "values": [{"measurement": "IC50", "setting": "[2]", "value": 0.386, "unit": "mM"}, {"measurement": "times less potent", "setting": "[2]", "value": "4–6 times"}, {"measurement": "IC50", "setting": "[3]", "value": 4.38, "unit": "mM"}, {"measurement": "signs of neuroexcitation, summary in words relative to 4-AP", "setting": "C57Bl/6 J mice", "value": "did not cause any effects at doses up to 20 times greater"}]}
{"molecule": "CC(C)NCC(O)COc1cccc2ccccc12", "note": "(centres unmarked) [Propranolol, propranolol]", "values": [{"measurement": "half-life", "setting": "in vitro", "value": "25.6 ± 2.1", "unit": "min"}]}
{"molecule": "Nc1c[14cH]n[14cH]c1F", "note": "[[^14C]3-F-4-AP, [2,6-^14C]4-amino-3-fluoropyridine]", "values": [{"measurement": "relative autoradiographic signal intensity in corpus callosum", "setting": "[1]; Shiverer (Mbp^shi/shi) mice, normalized to cortex", "value": "0.878 ± 0.043"}, {"measurement": "increase in signal, Shiverer versus control white matter", "setting": "[1]; corpus callosum", "value": 29, "unit": "%"}, {"measurement": "relative autoradiographic signal intensity in myelinated white matter", "setting": "[1]; wild-type/control mice, normalized to cortex (gray matter = 1.0)", "value": "0.679 ± 0.046"}]}
{"molecule": "Nc1c[14cH]n[14cH]c1", "note": "[[^14C]4-AP, [2,6-^14C]4-aminopyridine, reference compound]", "values": [{"measurement": "autoradiographic signal in the demyelinated area", "setting": "[1]; LPC-injected mice, 3 days after injection, normalized to cortex", "value": "0.733 ± 0.047"}, {"measurement": "autoradiographic signal in the contralateral control area", "setting": "[1]; LPC-injected mice, opposite hemisphere, normalized to cortex", "value": "0.507 ± 0.070"}]}
